# In patent US20200147028A1, “TREATMENT OF RESPIRATORY INFECTION WITH A TLR2 AGONIST” (Ena Therapeutics Pty Ltd, priority 2017, published 2020):
# “Also recorded” adds a separate entry of the source.
# How the values were obtained:
# [1] = system: Rhinovirus serotype 1B (RV1B); test: Mouse RV1B infection model: lung viral RNA by qPCR; conditions: for lung viral load: day +1
# [2] = system: RV1B; test: RV1B infection of ALI-differentiated BCi-NS1 cells: viral RNA by qPCR; conditions: 20 nM and 2 nM pre-treatment 24 h; 96 h post infection; vs control
# [3] = biological target: TLR-2 (Homo sapiens, UniProt O60603); test: TLR panel NF-κB SEAP reporter in HEK293 cells: TLR-2; format: cell-based; parameters: expressed in transfected cells; host or cells: HEK293; conditions: human and mouse TLR panels, FIG. 21
# Description: (§1) INNA-006 was assessed for its ability to activate a range of other TLR pattern recognition receptors. These assessments were conducted using both human and mouse TLR panels. These assays detect a secreted embryonic alkaline phosphatase (SEAP) reporter under the control of a promoter which is inducible by NF-κB activation in HEK293 cells. The secreted embryonic alkaline phosphatase (SEAP) reporter is under the control of a promoter inducible by the transcription factor NF-κB. This reporter gene allows the monitoring of signaling through the TLR, based on the activation of NF-κB. In a 96-well plate (200 μL total volume) containing the appropriate cells (50,000-75,000 cells/well), 20 μL of the test article or the positive control ligand is added to the wells. The media added to the wells is designed for the detection of NF-κB induced SEAP expression. After a 16-24 hr incubation the optical density (OD) is read at 650 nm on a Molecular Devices SpectraMax 340PC absorbance detector.
# [4] = parameters: species or system BALB/c mice; conditions: mouse, in vivo
# Source text: Each group contained 5 mice.
# [5] = system: BAL inflammatory cells; test: Mouse RV1B infection model: BAL cell analysis
# Description: Following sacrifice, mice were tracheally cannulated and 1 ml of Hanks buffered saline solution (Hyclone™, GE Life Sciences) flushed through the airways, 3-5 times. BAL cells were pelleted by centrifugation and supernatant was collected and stored at −80° C. for ELISAs. The pelleted cells were red blood cells lysed and the remaining cells were counted on a heamocytometer by trypan blue exclusion. Cell suspensions were then cytocentrifuged onto slides and fixed and stained with Diff Quick (POCD) solutions as per manufacturer's recommendations. A minimum of 200 total cells were counted per slide and numbers of neutrophils, lymphocytes, and macrophages were determined.
# [6] = system: CXCL1; test: Mouse RV1B infection model: CXCL1 in BAL by ELISA
# Description: (§2) Remaining lung lobes we snap frozen in liquid nitrogen, homogenised in 600 μl PBS containing protease inhibitors (Roche) by TissueLyser II run twice at 30 Hz for 4 minutes. Cell debris was pelleted by centrifugation, samples were diluted 1:2 with PBS and stored at −80° C. BAL fluid was then analysed for production of KC/IL-8 (CXCL1) and TNF-α by Duoset ELISA (R&D Systems) as per manufacturer's instructions.
# [7] = system: TNF-α; test: Mouse RV1B infection with fluticasone propionate: TNF-α in BAL by ELISA; format: in vivo, BALB/c mice
# [8] = system: CXCL1; test: Mouse RV1B infection with fluticasone propionate: CXCL1 in BAL by ELISA; format: in vivo, BALB/c mice; conditions: 2 pmol INNA-006, with or without FP; day 2 p.i.
# [9] = system: other TLR pattern recognition receptors; test: TLR panel NF-κB SEAP reporter in HEK293 cells: other TLRs; format: cell-based; conditions: human and mouse TLR panels
# Description: as §1
# [10] = system: TNFα; test: Mouse RV1B infection model: TNFα in BAL by ELISA
# Description: as §2
# [11] = system: Rhinovirus serotype 1B (RV1B); test: Mouse RV1B infection with fluticasone propionate: lung viral RNA by qPCR
# [12] = system: BAL inflammatory cells; test: Mouse RV1B infection with fluticasone propionate: BAL cell analysis
# Description: Following sacrifice, mice were tracheally cannulated and 1 ml of Hanks buffered saline solution (Hyclone™, GE Life Sciences) flushed through the airways, 3-5 times. BAL cells were pelleted by centrifugation and supernatant was collected and stored at −80° C. for ELISAs. The pelleted cells were red blood cells lysed and the remaining cells were counted on a heamocytometer by trypan blue exclusion. Cell suspensions were then cytocentrifuged onto slides and fixed and stained with Diff Quick (POCD) solutions as per manufacturers recommendations. A minimum of 200 total cells were counted per slide and numbers of neutrophils, lymphocytes, and macrophages were determined.
# [13] = Study 1G: lowest doses (2 pmole and 1 pmole) day +1, listed as Peg-S-Pam2Cys
# Sequence of TLR-2 (O60603 21-784): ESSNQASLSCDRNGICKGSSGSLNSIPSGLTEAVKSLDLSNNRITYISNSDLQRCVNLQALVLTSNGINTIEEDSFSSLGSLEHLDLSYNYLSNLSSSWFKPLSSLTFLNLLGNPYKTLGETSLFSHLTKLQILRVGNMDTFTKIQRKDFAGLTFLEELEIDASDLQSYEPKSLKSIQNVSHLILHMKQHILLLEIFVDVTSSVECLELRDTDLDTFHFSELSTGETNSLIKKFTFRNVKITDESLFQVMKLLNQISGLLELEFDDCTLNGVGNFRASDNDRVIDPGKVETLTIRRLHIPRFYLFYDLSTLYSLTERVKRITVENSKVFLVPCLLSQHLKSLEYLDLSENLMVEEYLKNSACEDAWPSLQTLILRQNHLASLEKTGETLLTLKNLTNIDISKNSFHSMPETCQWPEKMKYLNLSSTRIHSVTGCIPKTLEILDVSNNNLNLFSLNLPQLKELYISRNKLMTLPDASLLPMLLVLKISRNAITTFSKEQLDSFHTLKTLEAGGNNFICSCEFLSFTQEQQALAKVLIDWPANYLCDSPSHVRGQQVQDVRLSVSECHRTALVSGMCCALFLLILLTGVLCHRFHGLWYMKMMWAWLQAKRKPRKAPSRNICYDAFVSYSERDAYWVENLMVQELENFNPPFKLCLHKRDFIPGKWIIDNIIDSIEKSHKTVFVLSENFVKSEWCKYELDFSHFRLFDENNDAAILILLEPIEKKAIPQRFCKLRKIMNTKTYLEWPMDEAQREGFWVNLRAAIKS
# Sequence of TLR-2 (Q9Y2C9 32-796 partner): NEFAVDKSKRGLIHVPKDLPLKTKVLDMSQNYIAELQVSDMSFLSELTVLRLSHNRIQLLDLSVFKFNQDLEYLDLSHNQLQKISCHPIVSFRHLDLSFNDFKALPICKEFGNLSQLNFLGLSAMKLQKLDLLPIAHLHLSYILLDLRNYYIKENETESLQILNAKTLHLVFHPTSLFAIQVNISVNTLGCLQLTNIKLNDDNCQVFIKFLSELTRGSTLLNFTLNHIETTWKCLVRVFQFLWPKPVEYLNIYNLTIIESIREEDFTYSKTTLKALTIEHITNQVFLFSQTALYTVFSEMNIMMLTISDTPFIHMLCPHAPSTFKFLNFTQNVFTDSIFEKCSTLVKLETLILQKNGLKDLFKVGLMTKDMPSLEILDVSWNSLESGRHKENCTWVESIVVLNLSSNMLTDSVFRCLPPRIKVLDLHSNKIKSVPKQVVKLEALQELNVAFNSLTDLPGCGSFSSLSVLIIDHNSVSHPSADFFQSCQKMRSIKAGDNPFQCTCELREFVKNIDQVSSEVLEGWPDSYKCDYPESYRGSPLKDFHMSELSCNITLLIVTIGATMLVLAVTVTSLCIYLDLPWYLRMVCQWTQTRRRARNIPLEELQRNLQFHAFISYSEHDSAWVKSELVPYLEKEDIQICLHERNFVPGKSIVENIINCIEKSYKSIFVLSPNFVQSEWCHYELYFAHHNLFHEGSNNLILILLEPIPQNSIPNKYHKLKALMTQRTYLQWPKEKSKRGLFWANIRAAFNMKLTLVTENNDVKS
compound,measurement,setting,value
"CCC(=O)OCC(CSCC(N)C(=O)NC(CO)C(=O)NCCOCC(=O)NCC(N)=O)OC(=O)CC (stereo not drawn) [INNA-006, Pam2Cys-Ser-PEG]",reduction of RV infection (lung RV copy number),[1]; Study 1E: 10 pmol day −7,86.76%
same,anti-viral efficacy relative to Pam2CysSK4,"[1]; Study 1E: 10 pmol dose day −7, listed as Peg-S-Pam2Cys",better anti-viral efficacy compared to Pam2CysSK4
same,dose dependence of RV suppression,[1]; Study 1E: 1-10 pmol day −7,appeared to be dose dependant
same,RV copy number in lung,"[1]; Study 1E: every dose 1-10 pmol day −7, day 2 p.i.",significant reduction in RV infection
same,"viral clearance, day −7 + day −1 versus day −7 only",[1]; Study 1F: 2 pmol,enhanced viral clearance compared to mice dose only on day 7
same,reduced viral RNA,[1]; Study 1F: single treatment at day −7,70%
same,reduction in viral RNA,[1]; Study 1F: treatment at both days −7 and −1,approx. 90%
same,RV copy numbers in lung,"[1]; Study 1G: 10, 5, 2, 1 pmol 1 day post-infection, day 2 p.i.",reduces RV1B copy numbers in the lung
same,lung viral load,[1]; Study 1G: doses 5 pmole per mouse and lower,significant reduction in lung viral load
same,lung viral load,[1]; Study 1G: highest dose 10 pmole per mouse,less effective and not significant
same,reduction of viral RNA levels,[2],approximately 50%
same,activation of TLR-2 (SEAP reporter),[3],able to activate its proposed target (TLR-2)
same,weight loss,[4],weight loss at the higher doses
same,weight loss after second dose,[4],no weight loss observed
same,RV-induced BAL neutrophilic inflammation,"[5]; Study 1E: day −7, day 2 p.i., listed as Peg-S-Pam2Cys",reduced RV-induced BAL neutrophilic inflammation; also recorded: reduced RV-induced neutrohillic inflammation; also recorded: significantly reduced neutrophilic inflammation
same,BAL macrophages,"[5]; Study 1F: 2 pmol day −7, mock",higher numbers of macrophages compared to its saline mock control group
same,BAL lymphocytes,"[5]; Study 1F: 2 pmol, day −7, day −1 or both",promoted lymphocyte recruitment in the BAL
same,total BAL leukocytes in RV1B infected mice,"[5]; Study 1F: 2 pmol, vs Saline RV",did not induce significantly higher leukocyte recruitment
same,total BAL leukocytes in mock infected mice,"[5]; Study 1F: 2 pmol, vs Saline mock",Total leukocytes were increased
same,neutrophilic response in uninfected mice,[5]; Study 1F: three days after dosing (d-1 groups),not Peg-S-Pam2Cys
same,BAL lymphocytes,[5]; Study 1G: day +1 treatment,no changes to lymphocyte numbers
same,BAL macrophages,[5]; Study 1G: day +1 treatment,significantly reducing macrophage numbers
same,total BAL leucocyte numbers,[5]; Study 1G: day +1 treatment,no significant differences
same,BAL neutrophils,"[5]; Study 1G: day +1 treatment, listed as Peg-S-Pam2Cys",drastically increases neutrophil numbers in BAL; also recorded: increasing neutrophil recruitment
same,RV-induced expression of CXCL1,"[6]; Study 1E(ii): INNA-011 and INNA-006 comparison, day −7",reduced RV-induced expression of CXCL1
same,CXCL1 in BAL,[6]; Study 1E: 10 pmol and 5 pmol dose day −7,effectively reduced CXCL1 levels
same,CXCL1 in BAL,"[6]; Study 1F: 2 pmol day −1, RV1B, listed as Peg-S-Pam2Cys",CXCL1 production was only increased; also recorded: significantly increased in mice treated one day prior to infection
same,CXCL1 / lung inflammation after day −1 dose with prior day −7 dose,"[6]; Study 1F: 2 pmol day −7 and day −1, listed as Peg-S-Pam2Cys",protected from lung inflammation; also recorded: completely abolished
same,CXCL1 in BAL,[6]; Study 1G: 10-1 pmol day +1,dose dependent upon drug treatment
same,CXCL1 (KC) in BAL,[6]; [13],not increased by the lowest doses; also recorded: no significant increase in KC or TNFα
same,TNF-α in BAL,[7]; repeated doses (D-7 & D-1),not observed
same,TNF-α in BAL,[7]; single 2 pmol dose seven days prior to infection,significant TNF-α production in BAL
same,CXCL1 in BAL,[8],neutrophil chemokine production supressed; also recorded: supressed CXCL1 production; also recorded: drastically reduced levels of mouse neutrophil chemokine CXCL1; also recorded: highly effective at suppressing CXCL1 expression
same,activation of other TLRs (SEAP reporter),[9],no activation of any other TLR tested
same,TNF-α in BAL,"[10]; Study 1E: day −7, listed as Peg-S-Pam2Cys",not increased by any of the compounds; also recorded: lack of induction of TNFα
same,TNF-α in BAL,"[10]; Study 1F: 2 pmol, all groups",did not induce TNF-α in any of the groups
same,TNF-α in BAL,[10]; Study 1G: 10-1 pmol day +1,dose dependent upon drug treatment
same,TNF-α in BAL,[10]; [13],not increased by the lowest doses; also recorded: no significant increase in KC or TNFα
same,viral lung load,"[11]; 2 pmol INNA-006, both treatment protocols, all groups",reduced virus lung load in all groups; also recorded: significant reduction in viral load with both treatment protocols
same,viral lung load / antiviral efficacy,[11]; repeated INNA-006 (D-7 & D-1) with FP,antiviral efficacy of repeated INNA-006 treatment was enhanced by FP; also recorded: best suppression of viral lung RNA
same,"RV-induced, steroid resistant neutrophilic inflammation","[12]; 2 pmol, all treatment protocols, with or without FP",prevented RV-induced and steroid resistant neutrophilic inflammation; also recorded: completely ameliorated RV-induced and steroid resistant neutrophilic inflammatory response; also recorded: complete suppression of RV-induced steroid resistant neutrophilic inflammation
same,BAL macrophages and lymphocytes,[12]; D-7 INNA-006 2 pmol with FP,increased macrophages and lymphocytes when given in conjunction with FP
same,BAL macrophages and lymphocytes,[12]; combined D-7 & D-1 INNA-006 2 pmol,increased macrophages and lymphocytes in BAL
same,BAL macrophages,[12]; combined D-7 & D-1 INNA-006 in FP treated mice,Increased Macrophages
same,total BAL leukocyte numbers,[12]; repeated 2 pmol INNA-006 (day −7 & day −1),increased total leukocyte numbers
